Measured values: patent US20090062721A1, “IONTOPHORESIS DEVICE AND METHOD OF MANUFACTURING THE SAME” (TTI ELLEBEAU INC., priority 2006, published 2009)
Structures can show the parent of a compound that is named as a salt.

Assay: pH of aqueous lidocaine hydrochloride solution brought into contact with an activated carbon fiber polarizable electrode
Type: physicochemical
Conditions: after contact with polarizable electrode composed of activated carbon fibers, within an extremely short time period

SMILES: CCN(CC)CC(=O)Nc1c(C)cccc1C [lidocaine hydrochloride]
- pH value of aqueous solution: about 2.5
